Test results from PMC5219620 (International Journal for Parasitology: Drugs and Drug …, 2016).

Test system: L6 cells
Experiment: AlamarBlue in vitro compound toxicity in L6 cells
Assay type: cell-based, rat
Conditions: upper bound of TI over T. copemani G1, G2 and T. cruzi

SMILES	Therapeutic index (TI), in general over all trypanosomes tested
Nc1nc(N)nc(Nc2ccc([As]3SCC(CO)S3)cc2)n1 (centres unmarked) [Melarsoprol, (2-(4-(4,6-diamino-1,3,5-triazin-2-ylamino)phenyl)-1,3,2-dithiarsolan-4-yl)methanol]	< 12.1
CCCCCCCCCCCCCCCCOP(=O)([O-])OCC[N+](C)(C)C [Miltefosine, hexadecylphosphocholine]	< 2.4
